Values joined by “and” are separate entries in the source; they are usually repeats but may differ in a detail not shown here. Equal values may be shown once.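 Dose response: 5 concentrations. Exposure: 48 h. Format: 96-well plates. Endpoint: linear interpolation; highest concentration if not reached. GI50 is the concentration that inhibits growth by half.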 Active and inactive are the calls of the source. Rule as the data show it: active = GI50 up to about 1.1 µM and inactive = higher.

Test systems include OVCAR-3; SK-OV-3; OVCAR-8; OVCAR-5; T47D; CCRF-CEM; EKVX; UACC-62; SN12C; NCI-H226; SW-620; COLO 205; SNB-75; NCI/ADR-RES; SF-268; DU-145; SK-MEL-5; TK-10; SNB-19; Hs-578T.
Assay in all cases: DTP human tumour cell line panel, 48 h

Take `C=C(Cl)C(Cl)(CBr)CCC(Br)C(C)(C)Cl` (stereo not given): the GI50 is 798 nM (active) and 2.23 µM (inactive) and 1.51 µM (inactive) in the assay with OVCAR-3; 2.36 µM (inactive) and 27.2 µM (inactive) in the assay with SK-OV-3; 6.25 µM (inactive) and 2.03 µM (inactive) and 1.26 µM (inactive) in the assay on OVCAR-8; 1.93 µM (inactive) and 14.7 µM (inactive) and 3.42 µM (inactive) with OVCAR-5; 3.37 µM (inactive) and 416 nM (active) and 973 nM (active) in the assay on T47D; 5.08 µM (inactive) and 12.5 µM (inactive) and 4.5 µM (inactive) with CCRF-CEM. Further, the GI50 in the assay on EKVX was 1.79 µM (inactive) and 7.05 µM (inactive) and 3.31 µM (inactive); with UACC-62, 3.72 µM (inactive) and 1.07 µM (active) and 3.47 µM (inactive); with SN12C, 14.7 µM (inactive) and 4.2 µM (inactive) and 6.62 µM (inactive); with NCI-H226 it was 18.2 µM (inactive) and 17.5 µM (inactive) and 16 µM (inactive); with SW-620 it was 1.91 µM (inactive) and 12.2 µM (inactive) and 1.52 µM (inactive); in the assay on COLO 205, 1.72 µM (inactive) and 2.95 µM (inactive) and 14.5 µM (inactive). The GI50 with SNB-75 was 1.64 µM (inactive) and 834 nM (active) and 416 nM (active); with NCI/ADR-RES it was 12 µM (inactive) and 2.44 µM (inactive) and 1.83 µM (inactive); in the assay on SF-268, 3.03 µM (inactive) and 735 nM (active) and 1.35 µM (inactive); with DU-145, 2.76 µM (inactive) and 1.38 µM (inactive); with SK-MEL-5, 14.9 µM (inactive) and 12.7 µM (inactive) and 12.4 µM (inactive); in the assay with TK-10 it was 3.43 µM (inactive) and 1.93 µM (inactive) and 2.07 µM (inactive). For the same molecule, the GI50 in the assay on SNB-19 is 2.41 µM (inactive) and 863 nM (active) and 3.49 µM (inactive); in the assay with Hs-578T, 914 nM (active) and 1.11 µM (active) and 665 nM (active).
On to `O=C(/C=C/c1cccs1)c1cccc(C(=O)/C=C/c2cccs2)n1`, for which the GI50 was 42.2 µM (inactive) in the assay on OVCAR-3; > 100 µM (inactive) in the assay with SK-OV-3; 3.68 µM (inactive) with OVCAR-8; > 73.1 µM (inactive) in the assay with OVCAR-5; 19.4 µM (inactive) with T47D; 2.82 µM (inactive) in the assay on CCRF-CEM. Besides, the GI50 is > 100 µM (inactive) with EKVX; > 31.2 µM (inactive) in the assay on UACC-62; 19.9 µM (inactive) in the assay on SN12C; > 100 µM (inactive) in the assay with NCI-H226; 4.05 µM (inactive) in the assay with SW-620; > 100 µM (inactive) in the assay on COLO 205. Besides, the GI50 in the assay on SNB-75 was 65.9 µM (inactive); in the assay with NCI/ADR-RES it was > 60 µM (inactive); in the assay on SF-268, 21.5 µM (inactive); with DU-145, > 81.3 µM (inactive); with SK-MEL-5, > 100 µM (inactive); with TK-10, > 100 µM (inactive). For the same molecule, the GI50 in the assay with SNB-19 was 19.3 µM (inactive); in the assay with Hs-578T, 23.8 µM (inactive).
Take `COC(=O)c1ccc(C)cc1C1CN=NC12Cc1cccc(C)c1C2=O` (stereo not given): the GI50 was 32.8 µM (inactive) in the assay on OVCAR-3; 90.4 µM (inactive) in the assay with SK-OV-3; 21.1 µM (inactive) in the assay on OVCAR-8; > 100 µM (inactive) in the assay on OVCAR-5; 24.9 µM (inactive) in the assay with T47D; 31.6 µM (inactive) in the assay with CCRF-CEM. Besides, the GI50 in the assay on EKVX was 27.6 µM (inactive); in the assay with UACC-62 it was 21 µM (inactive); in the assay on SN12C, 52.7 µM (inactive); in the assay on NCI-H226, 25.1 µM (inactive); in the assay with SW-620, 57.7 µM (inactive); with COLO 205, 30.5 µM (inactive). Moreover, the GI50 in the assay with SNB-75 is 34.2 µM (inactive); with NCI/ADR-RES, 25.4 µM (inactive); in the assay with SF-268 it was 57.1 µM (inactive); in the assay on DU-145 it was 65.2 µM (inactive); in the assay with SK-MEL-5 it was 22.2 µM (inactive); in the assay with TK-10, > 100 µM (inactive). Besides, the GI50 in the assay on SNB-19 is > 100 µM (inactive); in the assay on Hs-578T, 38.3 µM (inactive).
For `Cc1cc(C(O)CNC(C)CCn2cnc3c2c(=O)n(C)c(=O)n3C)ccc1O` (stereo not given), the GI50 in the assay with OVCAR-3, with SK-OV-3, in the assay on OVCAR-8, with OVCAR-5, with T47D and with CCRF-CEM was > 100 µM (inactive) throughout. In addition, the GI50 in the assay on EKVX, in the assay on UACC-62, in the assay with SN12C, with NCI-H226, in the assay with SW-620 and with COLO 205 was > 100 µM (inactive) throughout. The GI50 with SNB-75, in the assay on NCI/ADR-RES, in the assay on SF-268, in the assay with DU-145, in the assay with SK-MEL-5 and in the assay with TK-10 was > 100 µM (inactive) each time. Also, the GI50 with SNB-19 and in the assay with Hs-578T was > 100 µM (inactive) each time.
For `Cc1c2c(c(C)n1-c1ccccc1)C(=O)N(CCSC(=N)N)C2=O`, the GI50 in the assay on OVCAR-3 is > 100 µM (inactive); in the assay with SK-OV-3, > 100 µM (inactive); in the assay with OVCAR-8, 62.2 µM (inactive); in the assay with OVCAR-5, > 100 µM (inactive); in the assay on T47D, 1.9 µM (inactive); in the assay with CCRF-CEM it was > 100 µM (inactive). In addition, the GI50 was 9.75 µM (inactive) in the assay on EKVX; > 100 µM (inactive) in the assay on UACC-62; > 100 µM (inactive) in the assay on SN12C; > 100 µM (inactive) in the assay with NCI-H226; > 100 µM (inactive) in the assay on SW-620; > 100 µM (inactive) in the assay on COLO 205. In addition, the GI50 in the assay with SNB-75 was 15.6 µM (inactive); in the assay on NCI/ADR-RES, 59.6 µM (inactive); in the assay with SF-268, > 100 µM (inactive); in the assay with DU-145, > 100 µM (inactive); in the assay on SK-MEL-5, 1.96 µM (inactive); in the assay with TK-10 it was > 100 µM (inactive). For the same molecule, the GI50 in the assay with SNB-19 and with Hs-578T was > 100 µM (inactive) each time.
With `Cn1c(=O)nc2n(-c3ccc(Cl)cc3)c3cc(Cl)ccc3nc-2c1=O`, the GI50 with OVCAR-3 was 1.95 µM (inactive); in the assay on SK-OV-3, 18.3 µM (inactive); in the assay with OVCAR-8, 2.72 µM (inactive); in the assay with OVCAR-5, 15 µM (inactive); in the assay on T47D it was 0.92 µM (active); with CCRF-CEM, 5.82 µM (inactive). The GI50 in the assay on EKVX is 8.85 µM (inactive); with UACC-62, 1.88 µM (inactive); with SN12C, 6.21 µM (inactive); in the assay on NCI-H226, 25.8 µM (inactive); in the assay with SW-620 it was 2.12 µM (inactive); in the assay on COLO 205, 2.11 µM (inactive). The GI50 in the assay with SNB-75 was 7.14 µM (inactive); in the assay with NCI/ADR-RES, 8.51 µM (inactive); with SF-268, 3.08 µM (inactive); in the assay with DU-145, 15.6 µM (inactive); with SK-MEL-5 it was 1.67 µM (inactive); in the assay with TK-10, 20 µM (inactive). For the same molecule, the GI50 with SNB-19 is 14.3 µM (inactive); with Hs-578T, 2.48 µM (inactive).
In the case of `CC(=O)NNc1nc(C)c(C(/C=C/c2ccc([N+](=O)[O-])cc2)=N/N)s1`, the GI50 in the assay on OVCAR-3 is > 100 µM (inactive); in the assay on SK-OV-3 it was 41.3 µM (inactive); in the assay with OVCAR-8 it was > 100 µM (inactive); with OVCAR-5 it was > 100 µM (inactive); in the assay on T47D, > 100 µM (inactive); in the assay on CCRF-CEM, > 100 µM (inactive). For the same molecule, the GI50 was 94.4 µM (inactive) in the assay on EKVX; > 100 µM (inactive) in the assay with UACC-62; 84.5 µM (inactive) in the assay with SN12C; > 100 µM (inactive) in the assay with NCI-H226; > 100 µM (inactive) with SW-620; > 100 µM (inactive) with COLO 205. For the same molecule, the GI50 in the assay on SNB-75 was 87.9 µM (inactive); in the assay with NCI/ADR-RES, > 100 µM (inactive); in the assay on SF-268 it was > 100 µM (inactive); with DU-145, 96.4 µM (inactive); in the assay with SK-MEL-5, > 100 µM (inactive); in the assay with TK-10 it was 37.9 µM (inactive). Besides, the GI50 in the assay on SNB-19 and in the assay on Hs-578T was > 100 µM (inactive) each time.
Take `CC1(C)CCC[C@@]2(C)C1CC[C@@]1(CO)O[C@H](C3=CC(=O)OC3O)C[C@H]12` (stereo not given in full): the GI50 with OVCAR-3 is 14.9 µM (inactive); with SK-OV-3, 29.4 µM (inactive); in the assay with OVCAR-8 it was 15.6 µM (inactive); with OVCAR-5, 22.8 µM (inactive); in the assay with T47D, 12.2 µM (inactive); in the assay on CCRF-CEM, 2.74 µM (inactive). Also, the GI50 was 22.9 µM (inactive) in the assay on EKVX; 3.89 µM (inactive) in the assay with UACC-62; 13.3 µM (inactive) in the assay with SN12C; 18.2 µM (inactive) in the assay with NCI-H226; 7.74 µM (inactive) in the assay with SW-620; 11.1 µM (inactive) in the assay with COLO 205. In addition, the GI50 in the assay with SNB-75 was 15.3 µM (inactive); in the assay on NCI/ADR-RES it was 15 µM (inactive); in the assay with SF-268, 19.7 µM (inactive); in the assay on DU-145, 13.3 µM (inactive); in the assay on SK-MEL-5, 5.38 µM (inactive); in the assay with TK-10, 19.7 µM (inactive). Also, the GI50 was 16.2 µM (inactive) in the assay on SNB-19 and 14.7 µM (inactive) in the assay with Hs-578T.
Consider `CCN(CC)CCNc1ccc2nnn3c4ccc(O)cc4c(=O)c1c23`, for which the GI50 in the assay on OVCAR-3 was 8.02 µM (inactive); with SK-OV-3, 8.22 µM (inactive); with OVCAR-8 it was 1.49 µM (inactive); with OVCAR-5, 8.02 µM (inactive); with T47D, 18.5 µM (inactive); in the assay with CCRF-CEM, 0.586 µM (active). The GI50 was 6.98 µM (inactive) in the assay with EKVX; 8.39 µM (inactive) in the assay with UACC-62; 1.64 µM (inactive) in the assay on SN12C; 3.35 µM (inactive) with NCI-H226; 0.583 µM (active) with SW-620; 1.84 µM (inactive) in the assay on COLO 205. The GI50 was 2.07 µM (inactive) in the assay with SNB-75; 1.47 µM (inactive) in the assay on NCI/ADR-RES; 6.49 µM (inactive) in the assay on SF-268; 14.3 µM (inactive) in the assay on DU-145; 1.64 µM (inactive) in the assay on SK-MEL-5; 5.56 µM (inactive) in the assay with TK-10. The GI50 in the assay on SNB-19 was 5.52 µM (inactive); with Hs-578T it was 10.7 µM (inactive).
